Numbers after ± are expanded uncertainties.
Conditions: 101.33 kPa, Liquid; for speed of sound: Light diffraction method; for thermal diffusivity: Optical interferometry

Compound	speed of sound (293.15 K) [m/s]	thermal diffusivity (293.15 K) [m2/s]	speed of sound (298.15 K) [m/s]	thermal diffusivity (298.15 K) [m2/s]
CCCC[n+]1ccn(C)c1.O=S(=O)([N-]S(=O)(=O)C(F)(F)F)C(F)(F)F	1227 ± 13	6e-08 ± 3e-09	–	–
CCCCCCCCn1cc[n+](C)c1.O=S(=O)([N-]S(=O)(=O)C(F)(F)F)C(F)(F)F	1232 ± 11	6.1e-08 ± 5e-09	–	–
CCCCCn1cc[n+](C)c1.O=S(=O)([N-]S(=O)(=O)C(F)(F)F)C(F)(F)F	–	–	1227 ± 7	5.8e-08 ± 3e-09
CCCCn1cc[n+](C)c1.F[B-](F)(F)F [1-butyl-3-methylimidazolium tetrafluoroborate]	1564 ± 10	8.6e-08 ± 4e-09	–	–
CCCCCC[n+]1ccn(C)c1.O=S(=O)([N-]S(=O)(=O)C(F)(F)F)C(F)(F)F	1232 ± 11	6.06e-08 ± 3.2e-09	–	–
CCCCn1cc[n+](C)c1.F[P-](F)(F)(F)(F)F [1-butyl-3-methylimidazolium hexafluorophosphate]	1441 ± 11	7.5e-08 ± 5e-09	–	–
CCn1cc[n+](C)c1.O=S(=O)([N-]S(=O)(=O)C(F)(F)F)C(F)(F)F	1240 ± 10	6.01e-08 ± 2.9e-09	–	–
